Data as given in ChEMBL document CHEMBL3826905, “1'-Homonucleosides and their structural analogues: A review” (Eur J Med Chem, 2016).
In brackets after ≈: the same amount, converted by molar mass.

Columns and labels:
[1] = Antiproliferative activity against mouse L1210/0 cells after 48 hrs by trypan blue staining method; assay type: functional, cell-based; conditions: L1210/0, 48 h
[2] = biological target: Isoleucine--tRNA ligase (Escherichia coli K-12, UniProt P00956); assay: Inhibition of Escherichia coli isoleucyl-tRNA synthetase assessed as decrease in [3H]isoleucyl-tRNA generation
Isoleucine--tRNA ligase, sequence (P00956 whole entry): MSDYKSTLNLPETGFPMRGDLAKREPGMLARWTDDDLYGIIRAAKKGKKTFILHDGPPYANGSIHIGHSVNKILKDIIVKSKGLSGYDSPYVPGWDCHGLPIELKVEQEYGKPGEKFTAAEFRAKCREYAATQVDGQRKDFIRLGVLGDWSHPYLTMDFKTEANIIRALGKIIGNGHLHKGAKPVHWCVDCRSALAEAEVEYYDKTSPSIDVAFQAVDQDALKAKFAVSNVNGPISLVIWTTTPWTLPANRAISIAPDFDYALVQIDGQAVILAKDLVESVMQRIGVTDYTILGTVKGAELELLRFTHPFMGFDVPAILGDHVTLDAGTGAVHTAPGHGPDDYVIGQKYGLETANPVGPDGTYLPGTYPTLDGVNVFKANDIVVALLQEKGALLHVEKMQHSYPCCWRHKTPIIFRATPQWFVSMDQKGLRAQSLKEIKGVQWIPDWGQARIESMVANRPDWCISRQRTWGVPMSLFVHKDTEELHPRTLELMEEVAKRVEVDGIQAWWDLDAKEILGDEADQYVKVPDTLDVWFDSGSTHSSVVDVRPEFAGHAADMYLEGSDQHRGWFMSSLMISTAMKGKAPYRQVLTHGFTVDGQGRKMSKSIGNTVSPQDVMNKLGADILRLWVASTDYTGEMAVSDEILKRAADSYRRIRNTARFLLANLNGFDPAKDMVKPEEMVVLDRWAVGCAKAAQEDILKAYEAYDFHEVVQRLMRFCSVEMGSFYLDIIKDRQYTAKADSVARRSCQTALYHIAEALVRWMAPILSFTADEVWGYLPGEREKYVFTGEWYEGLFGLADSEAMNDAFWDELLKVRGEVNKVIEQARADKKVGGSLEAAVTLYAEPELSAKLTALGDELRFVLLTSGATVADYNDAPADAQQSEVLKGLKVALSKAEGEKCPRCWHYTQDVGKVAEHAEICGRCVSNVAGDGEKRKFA

[3] = tested on: Cytomegalovirus; assay: Antiviral activity against Cytomegalovirus Davis infected in HEL cells assessed as inhibition of virus plaque formation; assay type: functional, organism-based; conditions: Human betaherpesvirus 5, Davis
[4] = tested on: Cytomegalovirus; assay: Antiviral activity against Cytomegalovirus AD169 infected in HEL cells assessed as inhibition of viral plaque formation; assay type: functional, organism-based; conditions: Human betaherpesvirus 5, AD169, HEL
[5] = Cytostatic activity against mouse L1210/0 cells; assay type: functional, cell-based; conditions: Mus musculus, L1210/0
[6] = tested on: CCRF-CEM; assay: Cytostatic activity against human CEM/0 cells; assay type: functional, cell-based
[7] = tested on: MOLT-4; assay: Cytostatic activity against human Molt4/C8 cells; assay type: functional, cell-based; conditions: Homo sapiens, MOLT-4
[8] = Inhibition of Escherichia coli methionyl-tRNA synthetase assessed as decrease in [35S]methionyl-tRNA generation
[9] = tested on: Cytomegalovirus; assay: Antiviral activity against Cytomegalovirus Davis 07/1 infected in HEL cells; assay type: functional, organism-based; conditions: Human betaherpesvirus 5, Davis 07/1, HEL
[10] = tested on: Cytomegalovirus; assay: Antiviral activity against Cytomegalovirus AD169 infected in HEL cells; assay type: functional, organism-based; conditions: Human betaherpesvirus 5, AD169, HEL
[11] = tested on: Human alphaherpesvirus 3; assay: Antiviral activity against TK-deficient Varicella-zoster virus infected in HEL cells; assay type: functional, organism-based; conditions: Human alphaherpesvirus 3, HEL
[12] = tested on: Hepatitis C virus; assay: Antiviral activity against Hepatitis C virus; assay type: functional, organism-based, Hepacivirus hominis
[13] = tested on: Influenza A virus; assay: Antiviral activity against Influenza A virus; assay type: functional, organism-based
[14] = tested on: Human immunodeficiency virus 2; assay: Antiviral activity against HIV2 infected in human CEM cells assessed as protection against virus-induced cytopathicity by giant cell formation assay; assay type: functional, organism-based; conditions: Human immunodeficiency virus 2, CCRF-CEM
[15] = tested on: Human immunodeficiency virus 1; assay: Antiviral activity against HIV1 infected in human CEM cells assessed as protection against virus-induced cytopathicity by giant cell formation assay; assay type: functional, organism-based; conditions: Human immunodeficiency virus 1, CCRF-CEM

## Nc1nc2c(ncn2C[C@H]2C=C[C@@H](CO)C2)c(=O)[nH]1
[1]
  IC50: > 200 µM

## CC[C@H](C)[C@H](N)C(=O)OC[C@H]1O[C@@H](Cn2cnc3c(N)ncnc32)[C@H](O)[C@@H]1O
[2]
  IC50: > 128 µM

## Nc1nc(Cl)c2ncn(C[C@H]3CCC[C@H]3CO)c2n1
[3]
  IC50: > 5 µg/mL
[4]
  IC50: > 5 µg/mL

## OC[C@H]1C[C@@H](Cn2cnc3c(O)ncnc32)c2ccccc21
[5]
  IC50: 24 µg/mL (≈ 81 µM)
[6]
  IC50: 24 µg/mL (≈ 81 µM)
[7]
  IC50: 24 µg/mL (≈ 81 µM)

## CCCNc1ncnc2c1ncn2C[C@@H]1C[C@H](CO)c2ccccc21
[5]
  IC50: 24 µg/mL (≈ 71.1 µM)
[6]
  IC50: 24 µg/mL (≈ 71.1 µM)
[7]
  IC50: 24 µg/mL (≈ 71.1 µM)

## CSCC[C@H](N)C(=O)OC[C@H]1O[C@@H](CCn2cnc3c(N)ncnc32)[C@H](O)[C@@H]1O
[8]
  IC50: 8.3 µM

## CC(C)(C)[Si](OC[C@H]1C[C@@H](Cn2cnc3c(Cl)nc(N)nc32)c2cn(Cc3ccccc3)nc21)(c1ccccc1)c1ccccc1
[9]
  EC50: 390 nM
[10]
  EC50: 440 nM
[11]
  EC50: 2100 nM

## Cn1ncc2c1[C@H](Cn1ccc(=O)[nH]c1=O)C[C@@H]2CO[Si](c1ccccc1)(c1ccccc1)C(C)(C)C
[5]
  IC50: 3.2 µg/mL (≈ 6.22 µM)
[6]
  IC50: 3.2 µg/mL (≈ 6.22 µM)
[7]
  IC50: 3.2 µg/mL (≈ 6.22 µM)

## CC1(C)[C@@H](Cn2cnc3c(NC4CC4)nc(N)nc32)CC[C@@]1(C)CO
[1]
  IC50: 13.9 µg/mL

## OCC12C=CC(Cn3cnc4c(Cl)ncnc43)(O1)c1ccccc12 (centres undefined)
[12]
  EC50: 45.1 µM

## CSCC[C@H](N)C(=O)N(O)C[C@H]1O[C@@H](Cn2cnc3c(N)ncnc32)[C@H](O)[C@@H]1O
[8]
  IC50: 3.6 µM

## OC[C@H]1C[C@@H](Cn2cnc3c(Cl)ncnc32)c2ccccc21
[5]
  IC50: 24 µg/mL (≈ 76.2 µM)
[6]
  IC50: 24 µg/mL (≈ 76.2 µM)
[7]
  IC50: 24 µg/mL (≈ 76.2 µM)

## Nc1ncnc2c1ncn2C[C@H]1C=C[C@@H](CO)C1
[1]
  IC50: > 200 µM

## CSCC[C@H](N)C(=O)OC[C@H]1O[C@@H](Cn2cnc3c(NCc4ccccc4)ncnc32)[C@H](O)[C@@H]1O
[8]
  IC50: 3.6 µM

## Nc1nc2c(ncn2COC(CO)CO)c(=O)[nH]1 [GANCICLOVIR]
[9]
  EC50: 400 nM
[10]
  EC50: 250 nM

## COc1ncnc2c1ncn2C[C@@H]1C[C@H](CO)c2ccccc21
[5]
  IC50: 24 µg/mL (≈ 77.3 µM)
[6]
  IC50: 24 µg/mL (≈ 77.3 µM)
[7]
  IC50: 24 µg/mL (≈ 77.3 µM)

## CC(C)(C)[Si](OC[C@H]1C[C@@H](Cn2cnc3c(N)ncnc32)c2cn(Cc3ccccc3)nc21)(c1ccccc1)c1ccccc1
[9]
  EC50: 500 nM
[10]
  EC50: 500 nM
[11]
  EC50: 1500 nM

## CSCC[C@H](N)C(=O)OC[C@H]1O[C@@H](Cn2cnc3c(N)ncnc32)[C@H](O)[C@@H]1O
[8]
  IC50: 3.6 µM

## Clc1ncnc2c1ncn2CC12C=CC(O1)c1ccccc12 (centres undefined)
[12]
  EC50: 6.31 µM

## Nc1ccn(C[C@H]2C[C@H](O)[C@@H](CO)O2)c(=O)n1
[13]
  IC50: 67.3 µg/mL (≈ 279 µM)

## Nc1ncnc2c1ncn2C[C@H]1C[C@H](O)[C@@H](CO)O1
[13]
  IC50: 49.2 µg/mL (≈ 185 µM)

## Nc1ccn(C[C@H]2C[C@H](OCc3ccccc3)[C@@H](COCc3ccccc3)O2)c(=O)n1
[13]
  IC50: 57.4 µg/mL (≈ 136 µM)

## OCC12CCC(Cn3cnc4c(Cl)ncnc43)(O1)c1ccccc12 (centres undefined)
[12]
  EC50: 45.1 µM

## CC(C)Nc1ncnc2c1ncn2C[C@@H]1C[C@H](CO)c2ccccc21
[5]
  IC50: 24 µg/mL (≈ 71.1 µM)
[6]
  IC50: 24 µg/mL (≈ 71.1 µM)
[7]
  IC50: 24 µg/mL (≈ 71.1 µM)

## Nc1ncnc2c1ncn2C[C@@H]1C[C@H](CO)c2ccccc21
[5]
  IC50: 24 µg/mL (≈ 81.3 µM)
[6]
  IC50: 24 µg/mL (≈ 81.3 µM)
[7]
  IC50: 24 µg/mL (≈ 81.3 µM)

## O=c1[nH]c(=O)n([C@H]2CCC[C@H]2CO)cc1I
[14]
  EC50: 12.5 µg/mL (≈ 37.2 µM)
[15]
  EC50: 12.5 µg/mL (≈ 37.2 µM)

## OC[C@@H]1C=C[C@H](Cn2cnc3c(O)ncnc32)C1
[1]
  IC50: > 200 µM

## Cn1ncc2c1[C@H](Cn1cnc3c(Cl)ncnc31)C[C@@H]2CO[Si](c1ccccc1)(c1ccccc1)C(C)(C)C
[5]
  IC50: 3.2 µg/mL (≈ 5.74 µM)
[6]
  IC50: 3.2 µg/mL (≈ 5.74 µM)
[7]
  IC50: 3.2 µg/mL (≈ 5.74 µM)

## OC[C@H]1C[C@@H](Cn2cnc3c(-c4ccc(Cl)cc4)ncnc32)c2ccccc21
[5]
  IC50: 0.63 µg/mL (≈ 1.61 µM)
[6]
  IC50: 0.63 µg/mL (≈ 1.61 µM)
[7]
  IC50: 0.63 µg/mL (≈ 1.61 µM)
